This passage reports IC50 results from patent publication US11612604B2, “Methods of treating cancer with PLK4 inhibitors” (LUDWIG INSTITUTE FOR CANCER RESEARCH LTD, priority 2017, dated 2023).

SMILES strings stand for the structures.

The target of the experiment is T1, PLK4 (Homo sapiens, UniProt O00444).
T1 sequence (O00444 1-970): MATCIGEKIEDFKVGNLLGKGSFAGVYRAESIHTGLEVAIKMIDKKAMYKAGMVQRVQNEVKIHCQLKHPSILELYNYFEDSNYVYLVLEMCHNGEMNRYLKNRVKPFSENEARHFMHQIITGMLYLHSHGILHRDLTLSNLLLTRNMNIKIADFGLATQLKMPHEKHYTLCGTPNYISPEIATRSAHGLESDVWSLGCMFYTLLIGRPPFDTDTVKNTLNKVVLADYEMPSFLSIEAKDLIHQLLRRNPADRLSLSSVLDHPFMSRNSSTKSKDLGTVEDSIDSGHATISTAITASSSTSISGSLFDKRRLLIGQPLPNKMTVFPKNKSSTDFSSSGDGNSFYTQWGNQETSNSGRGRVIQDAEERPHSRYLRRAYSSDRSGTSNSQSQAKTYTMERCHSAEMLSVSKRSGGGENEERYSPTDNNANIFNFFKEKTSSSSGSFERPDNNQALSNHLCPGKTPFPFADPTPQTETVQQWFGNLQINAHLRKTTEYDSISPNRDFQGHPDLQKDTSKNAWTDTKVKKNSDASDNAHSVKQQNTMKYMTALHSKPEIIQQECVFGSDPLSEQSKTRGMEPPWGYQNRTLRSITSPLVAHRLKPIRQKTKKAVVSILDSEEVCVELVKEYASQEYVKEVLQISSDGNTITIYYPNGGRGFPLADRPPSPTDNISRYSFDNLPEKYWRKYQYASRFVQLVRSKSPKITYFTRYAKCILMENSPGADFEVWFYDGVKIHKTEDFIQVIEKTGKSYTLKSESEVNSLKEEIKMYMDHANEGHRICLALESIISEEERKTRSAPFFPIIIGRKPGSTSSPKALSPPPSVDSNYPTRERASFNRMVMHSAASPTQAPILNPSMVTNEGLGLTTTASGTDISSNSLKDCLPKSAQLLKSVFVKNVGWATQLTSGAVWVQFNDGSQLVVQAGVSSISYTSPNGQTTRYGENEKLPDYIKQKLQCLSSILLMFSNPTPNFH
Briefly: Activity (IC50) of the Table 1 compounds as PLK4 inhibitors. The experiment is classed as biochemical. Conditions: Table 1, IC50 class.

In the case of `Cc1cc(Nc2nc(Sc3ccc(NC(=O)C4CC4)cc3)nc(N3CCN(C)C(C)C3)c2C)n[nH]1` (stereo not shown), the IC50 was < 100 nM.
For `Cc1cc(Nc2nc(Sc3ccc(NC(=O)C4CC4)cc3)nc(N3CCN(CCN(C)C)CC3)c2C)n[nH]1`, the IC50 was < 100 nM.
`Cc1cc(Nc2nc(Sc3ccc(NC(=O)C4CC4)cc3)nc(N(C)C)c2C)n[nH]1`: the IC50 is < 100 nM.
On to `CCN(C)c1nc(Sc2ccc(NC(=O)C3CC3)cc2)nc(Nc2cc(C)[nH]n2)c1C`, for which the IC50 is < 100 nM.
On to `CCN(CC)c1nc(Sc2ccc(NC(=O)C3CC3)cc2)nc(Nc2cc(C)[nH]n2)c1C`, for which the IC50 was < 100 nM.
`Cc1cc(Nc2nc(Sc3ccc(NC(=O)C4CC4)cc3)nc(Cl)c2C)n[nH]1`: the concentration for half-maximal inhibition (IC50) was < 100 nM.
Turning to `Cc1cc(Nc2nc(Sc3ccc(NC(=O)C4CC4)cc3)nc(N(C)CCN(C)C)c2C)n[nH]1`, the 50% inhibitory concentration (IC50) was < 100 nM.
Take `CC(=O)Nc1ccc(Sc2nc(Nc3cc(C)[nH]n3)c(C)c(N3CCC(O)CC3)n2)cc1`: the IC50 is < 100 nM.
In the case of `CC(=O)Nc1ccc(Sc2nc(Nc3cc(C)[nH]n3)c(C)c(N3CCCC3)n2)cc1`, the IC50 is < 100 nM.
Take `CC(=O)Nc1ccc(Sc2nc(Nc3cc(C)[nH]n3)c(C)c(N3CCCCCC3)n2)cc1`: the IC50 was < 100 nM.
On to `CC(=O)Nc1ccc(Sc2nc(Nc3cc(C)[nH]n3)c(C)c(N3CC=CCC3)n2)cc1`, for which the IC50 is < 100 nM.
In the case of `CC(=O)Nc1ccc(Sc2nc(Nc3cc(C)[nH]n3)c(C)c(N3CC=C(F)CC3)n2)cc1`, the IC50 is < 100 nM.
The figure for `CC(=O)Nc1ccc(Sc2nc(Nc3cc(C)[nH]n3)c(C)c(N3CCC(C)CC3)n2)cc1` is < 100 nM; for `CC(=O)Nc1ccc(Sc2nc(Nc3cc(C)[nH]n3)c(Cl)c(N3CCN(C)CC3)n2)cc1` it is < 100 nM; for `CSc1nc(Nc2cc(C)[nH]n2)c(Cl)c(N2CCCCC2)n1` it is < 100 nM.
As to `Cc1cc(Nc2nc(Sc3ccccc3)nc(N3CCCCC3)c2C)n[nH]1`, the concentration for half-maximal inhibition (IC50) was < 100 nM.
On to `Cc1ccc(Sc2nc(Nc3cc(C)[nH]n3)c(C)c(N3CCCCC3)n2)cc1`, for which the IC50 is < 100 nM.
`Cc1cc(Nc2nc(Sc3ccc(N)cc3)nc(N3CCCCC3)c2C)n[nH]1`: the IC50 is < 100 nM.
As to `CNC(=O)Nc1ccc(Sc2nc(Nc3cc(C)[nH]n3)c(C)c(N3CCCCC3)n2)cc1`, the half-inhibitory concentration (IC50) was < 100 nM.
In the case of `COC(=O)Nc1ccc(Sc2nc(Nc3cc(C)[nH]n3)c(C)c(N3CCCCC3)n2)cc1`, the IC50 was < 100 nM.
The figure for `CC(=O)Nc1ccc(Sc2nc(Nc3cc(C)[nH]n3)c(C)c(N3CCC(F)(F)CC3)n2)cc1` is < 100 nM; for `CC(=O)Nc1ccc(Sc2nc(Nc3cc(C)[nH]n3)c(C)c(N3CCC(F)CC3)n2)cc1` it is < 100 nM.
Regarding `COc1c(Nc2cc(C)[nH]n2)nc(Sc2ccc(S(=O)(=O)Cc3ccccc3)cc2)nc1N1CCC(CCN2CCN(C)CC2)CC1`, the IC50 is < 100 nM.
As to `COc1c(Nc2cc(C)[nH]n2)nc(Sc2ccc(S(=O)(=O)Cc3ccccc3)cc2)nc1N1CCN(CCN2CCCCCC2)CC1`, the 50% inhibitory concentration (IC50) was < 100 nM.
The result for `COc1c(Nc2cc(C)[nH]n2)nc(Sc2ccc(NC(C)=O)cc2)nc1N1CCN(C2CCN(C)CC2)CC1` reads < 100 nM; that for `COc1c(Nc2cc(C)[nH]n2)nc(Sc2ccc(NC(C)=O)cc2)nc1N1CCN(C)CC1`, < 100 nM.
The figure for `CC(=O)Nc1ccc(Sc2nc(Nc3cc(C)[nH]n3)c(Cl)c(N3CCCCC3)n2)cc1` is < 100 nM; for `CNc1ccc(Sc2nc(Nc3cc(C)[nH]n3)c(C)c(N3CCCCC3)n2)cc1` it is < 100 nM; for `Cc1cc(Nc2nc(Sc3ccc(N(C)C)cc3)nc(N3CCCCC3)c2C)n[nH]1` it is < 100 nM.
Turning to `CC(=O)Nc1ccc(Sc2nc(Nc3cc(C)[nH]n3)cc(N3CCCCC3)n2)cc1`, the IC50 is < 100 nM.
In the case of `COc1c(Nc2cc(C)[nH]n2)nc(Sc2ccc(NC(C)=O)cc2)nc1N1CCNCC1`, the IC50 is < 100 nM.
Turning to `CCN(CC)c1nc(Sc2ccc(NC(C)=O)cc2)nc(Nc2cc(C)[nH]n2)c1OC`, the IC50 was < 100 nM.
The result for `CCN(C)c1nc(Sc2ccc(NC(C)=O)cc2)nc(Nc2cc(C)[nH]n2)c1OC` reads < 100 nM; that for `COc1c(Nc2cc(C)[nH]n2)nc(Sc2ccc(NC(C)=O)cc2)nc1N(C)C`, < 100 nM; that for `COc1c(Nc2cc(C)[nH]n2)nc(Sc2ccc(NC(C)=O)cc2)nc1N1CCOCC1`, < 100 nM.
On to `COc1c(Nc2cc(C)[nH]n2)nc(Sc2ccc(NC(C)=O)cc2)nc1N1CCN(C(C)=O)CC1`, for which the concentration for half-maximal inhibition (IC50) was < 100 nM.
In the case of `COCCN1CCN(c2nc(Sc3ccc(NC(C)=O)cc3)nc(Nc3cc(C)[nH]n3)c2OC)CC1`, the IC50 was < 100 nM.
The figure for `COc1c(Nc2cc(C)[nH]n2)nc(Sc2ccc(NC(C)=O)cc2)nc1N1CCCC1` is < 100 nM.
For the molecule `COc1c(Nc2cc(C)[nH]n2)nc(Sc2ccc(NC(C)=O)cc2)nc1N(C)C(C)C`, the IC50 is < 100 nM.
As for `CC(=O)Nc1ccc(Sc2nc(Nc3cc(C)[nH]n3)c(C)c(N3CCCCC3C)n2)cc1` (stereo not shown), the IC50 was < 100 nM.
Turning to `CCN1CCN(c2nc(Sc3ccc(NC(C)=O)cc3)nc(Nc3cc(C)[nH]n3)c2C)CC1`, the half-maximal inhibitory concentration (IC50) is < 100 nM.
The figure for `COCC(=O)N1CCN(c2nc(Sc3ccc(NC(C)=O)cc3)nc(Nc3cc(C)[nH]n3)c2OC)CC1` is < 100 nM; for `COc1c(Nc2cc(C)[nH]n2)nc(Sc2ccc(NC(C)=O)cc2)nc1N1CCC(F)(F)CC1` it is < 100 nM; for `COc1c(Nc2cc(C)[nH]n2)nc(Sc2ccc(NC(C)=O)cc2)nc1N1CCC(F)CC1` it is < 100 nM.
Turning to `COc1c(Nc2cc(C)[nH]n2)nc(Sc2ccc(NC(C)=O)cc2)nc1N1CCC(O)CC1`, the IC50 was < 100 nM.
Turning to `COc1c(Nc2cc(C)[nH]n2)nc(Sc2ccc(NC(C)=O)cc2)nc1N1CC=CCC1`, the IC50 is < 100 nM.
The figure for `COc1c(Nc2cc(C)[nH]n2)nc(Sc2ccc(NC(C)=O)cc2)nc1N1CC=C(F)CC1` is < 100 nM.
Consider `COc1c(Nc2cc(C)[nH]n2)nc(Sc2ccc(NC(C)=O)cc2)nc1N1CCC(C(C)=O)CC1`, for which the IC50 is < 100 nM.
For `COc1c(Nc2cc(C)[nH]n2)nc(Sc2ccc(NC(C)=O)cc2)nc1N1CCC(N)CC1`, the IC50 was < 100 nM.
For `COc1c(Nc2cc(C)[nH]n2)nc(Sc2ccc(NC(C)=O)cc2)nc1N1CCC(N(C)C)CC1`, the IC50 is < 100 nM.
As for `CC(=O)Nc1ccc(Sc2nc(Nc3cc(C)[nH]n3)c(C)c(N3CCC(CCN(C)C)CC3)n2)cc1`, the IC50 is < 100 nM.
The result for `CCN1CCN(c2nc(Sc3ccc(NC(C)=O)cc3)nc(Nc3cc(C)[nH]n3)c2OC)CC1` reads < 100 nM.
The figure for `COc1c(Nc2cc(C)[nH]n2)nc(Sc2ccc(NC(C)=O)cc2)nc1N1CCN(C(=O)C(C)C)CC1` is < 100 nM; for `CCC(=O)N1CCN(c2nc(Sc3ccc(NC(C)=O)cc3)nc(Nc3cc(C)[nH]n3)c2OC)CC1` it is < 100 nM; for `COc1c(Nc2cc(C)[nH]n2)nc(Sc2ccc(S(=O)(=O)Cc3ccccc3)cc2)nc1N1CCN(C2CCN(C)CC2)CC1` it is < 100 nM.
Consider `COc1c(Nc2cc(C)[nH]n2)nc(Sc2ccc(S(=O)(=O)Cc3ccccc3)cc2)nc1N1CCC(N2CCN(C)CC2)CC1`, for which the IC50 was < 100 nM.
The result for `CSc1nc(Nc2cc(C)[nH]n2)c(C)c(N2CCC(O)CC2)n1` reads < 100 nM.
Turning to `CSc1nc(Nc2cc(C)[nH]n2)c(C)c(N2CCOCC2)n1`, the half-inhibitory concentration (IC50) is < 100 nM.
As for `CC(=O)Nc1ccc(Sc2nc(Nc3cc(C)[nH]n3)c(C)c(N3CCN(C(C)C)CC3)n2)cc1`, the concentration for half-maximal inhibition (IC50) was < 100 nM.
The figure for `CC(=O)Nc1ccc(Sc2nc(Nc3cc(C)[nH]n3)c(C)c(N3CCN(C(=O)C(C)C)CC3)n2)cc1` is < 100 nM; for `CNCC(=O)N1CCN(c2nc(Sc3ccc(NC(C)=O)cc3)nc(Nc3cc(C)[nH]n3)c2OC)CC1` it is < 100 nM; for `COc1c(Nc2cc(C)[nH]n2)nc(Sc2ccc(NC(C)=O)cc2)nc1N1CCN(C(=O)CN(C)C)CC1` it is < 100 nM.
Regarding `CNC1CCN(c2nc(Sc3ccc(NC(C)=O)cc3)nc(Nc3cc(C)[nH]n3)c2C)CC1`, the IC50 was < 100 nM.
Take `CC(=O)Nc1ccc(Sc2nc(Nc3cc(C)[nH]n3)c(C)c(N3CCC(C(C)=O)CC3)n2)cc1`: the IC50 was < 100 nM.
Regarding `COc1c(Nc2cc(C)[nH]n2)nc(Sc2ccc(NC(C)=O)cc2)nc1N1CCN(C(C)C)CC1`, the IC50 was < 100 nM.
Consider `CNCC(=O)C1CCN(c2nc(Sc3ccc(NC(C)=O)cc3)nc(Nc3cc(C)[nH]n3)c2OC)CC1`, for which the IC50 was < 100 nM.
For `Cc1cc(Nc2nc(Sc3ccccc3)nc(N(C)C)c2C)n[nH]1`, the half-inhibitory concentration (IC50) was < 100 nM.
Consider `CNC(=O)Nc1ccc(Sc2nc(Nc3cc(C)[nH]n3)c(C)c(N3CCC(O)CC3)n2)cc1`, for which the IC50 is < 100 nM.
`CNC(=O)Nc1ccc(Sc2nc(Nc3cc(C)[nH]n3)c(C)c(N3CCOCC3)n2)cc1`: the IC50 was < 100 nM.
The result for `Cc1cc(Nc2nc(Sc3ccccc3)nc(N3CCC(O)CC3)c2C)n[nH]1` reads < 100 nM.
